≈ marks a conversion by molar mass, not a printed value.
Key:
Assay in all cases: MIC, broth microdilution (NCCLS)
Format in all cases: cell-based
[1] = tested on: S. pyogenes* GC4563 (Clinical); details: Streptococcus pyogenes, Mueller-Hinton II broth, 18-22 hours at 35° C.
Procedure, shortened: (§1)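 Serial antibiotic dilutions in Mueller-Hinton II broth were inoculated to 10^5 CFU/ml. Plates were incubated 18-22 hours at 35° C. in ambient air.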

[2] = tested on: E. coli GC2203 (ATCC Control); details: Escherichia coli, Mueller-Hinton II broth, 18-22 hours at 35° C.
Procedure, shortened: as §1

[3] = tested on: S. aureus GC2216 (ATCC Control); details: Staphylococcus aureus, Mueller-Hinton II broth, 18-22 hours at 35° C.
Procedure, shortened: as §1

[4] = tested on: E. coli GC4559 (parent GC4560); details: Escherichia coli, Mueller-Hinton II broth, 18-22 hours at 35° C.
Procedure, shortened: as §1

[5] = tested on: H. influenzae<> GC6896 (ATCC Control); details: Haemophilus influenzae, Mueller-Hinton II broth, 18-22 hours at 35° C.
Procedure, shortened: as §1

[6] = tested on: E. faecalis GC2242 (Van-resistant); details: Enterococcus faecalis, Mueller-Hinton II broth, 18-22 hours at 35° C.
Procedure, shortened: as §1

[7] = tested on: C. albicans GC3066 ATCC (Control); details: Candida albicans, Mueller-Hinton II broth, 18-22 hours at 35° C.
[8] = tested on: S. aureus GC1079 (tet(K)); details: Staphylococcus aureus, Mueller-Hinton II broth, 18-22 hours at 35° C.
Procedure, shortened: as §1

[9] = tested on: S. aureus GC4536 (Smith MP -In Vivo); details: Staphylococcus aureus, Mueller-Hinton II broth, 18-22 hours at 35° C.
Procedure, shortened: as §1

[10] = tested on: S. aureus GC6466 (tet(M)); details: Staphylococcus aureus, Mueller-Hinton II broth, 18-22 hours at 35° C.
Procedure, shortened: as §1

[11] = tested on: S. aureus GC6467 (tet(M) + (K)); details: Staphylococcus aureus
Procedure, shortened: as §1

[12] = tested on: S. aureus GC1131 (Clinical); details: Staphylococcus aureus, Mueller-Hinton II broth, 18-22 hours at 35° C.
Procedure, shortened: as §1

[13] = tested on: E. coli GC4560 (IMP mutant); details: Escherichia coli
Procedure, shortened: as §1

[14] = tested on: S. pneumoniae* GC1894 (Clinical); details: Streptococcus pneumoniae, Mueller-Hinton II broth, 18-22 hours at 35° C.
Procedure, shortened: as §1

[15] = tested on: M. catarrhalis* GC6907 (Clinical); details: Moraxella catarrhalis, Mueller-Hinton II broth, 18-22 hours at 35° C.
Procedure, shortened: as §1

[16] = tested on: E. faecalis GC4555 (ATCC Control); details: Enterococcus faecalis, Mueller-Hinton II broth, 18-22 hours at 35° C.
Procedure, shortened: as §1

[17] = tested on: S. pneumoniae* GC4465 (Clinical); details: Streptococcus pneumoniae, Mueller-Hinton II broth, 18-22 hours at 35° C.
Procedure, shortened: as §1

[18] = tested on: E. faecalis GC2267 (tet(L) + (M) + (S)); details: Enterococcus faecalis
Procedure, shortened: as §1

E. coli GC1073 (tet(B)) = details: Escherichia coli
Procedure, shortened: as §1

E. coli GC2270 (tet(M)) = details: Escherichia coli
Procedure, shortened: as §1

| SMILES | MIC [1] [µg/mL] | MIC [2] [µg/mL] | MIC [3] [µg/mL] | MIC [4] [µg/mL] | MIC [5] [µg/mL] | MIC [6] [µg/mL] | MIC [7] [µg/mL] | MIC [8] [µg/mL] | MIC [9] [µg/mL] | MIC [10] [µg/mL] | MIC [11] [µg/mL] | MIC [12] [µg/mL] | MIC [13] [µg/mL] | MIC [14] [µg/mL] | MIC [15] [µg/mL] | MIC [16] [µg/mL] | MIC [17] [µg/mL] | MIC [18] [µg/mL] | MIC (E. coli GC1073 (tet(B))) [µg/mL] | MIC (E. coli GC2270 (tet(M))) [µg/mL] |
| --- | --- | --- | --- | --- | --- | --- | --- | --- | --- | --- | --- | --- | --- | --- | --- | --- | --- | --- | --- | --- |
| CCCNCc1nc2cc(N(C)C)c3c(c2o1)C(=O)C1=C(O)[C@]2(O)C(=O)C(C(N)=O)=C(O)[C@@H](N(C)C)[C@@H]2C[C@@H]1C3 [Example 38, (6aR,7aS,8S,11aS)-5,8-bis(dimethylamino)-9,11a,12-trihydroxy-11,13-dioxo-2-[(propylamino)methyl]-6,6a,7,7a,8,11,11a,13-octahydrotetraceno[2,1-d][1,3]oxazole-10-carboxamide] | 4 (≈ 7.23 µM) | 32 (≈ 57.8 µM) | 32 (≈ 57.8 µM) | 32 (≈ 57.8 µM) | 64 (≈ 116 µM) | 16 (≈ 28.9 µM) | > 64 | 64 (≈ 116 µM) | 16 (≈ 28.9 µM) | 32 (≈ 57.8 µM) | > 64 | 32 (≈ 57.8 µM) | 8 (≈ 14.5 µM) | 4 (≈ 7.23 µM) | 4 (≈ 7.23 µM) | 16 (≈ 28.9 µM) | 4 (≈ 7.23 µM) | 64 (≈ 116 µM) | – | – |
| CN(C)c1cc2nc(-c3ccc(OCc4ccccc4)cc3)oc2c2c1C[C@H]1C[C@H]3[C@H](N(C)C)C(O)=C(C(N)=O)C(=O)[C@@]3(O)C(O)=C1C2=O [Example 11, (6aR,7aS,8S,11aS)-2-[4-(benzyloxy)phenyl]-5,8-bis(dimethylamino)-9,11a,12-trihydroxy-11,13-dioxo-6,6a,7,7a,8,11,11a,13-octahydrotetraceno[2,1-d](1,3]oxazole-10-carboxamide] | 32 (≈ 48.1 µM) | > 64 | 64 (≈ 96.3 µM) | > 64 | > 64 | 64 (≈ 96.3 µM) | > 64 | 64 (≈ 96.3 µM) | 64 (≈ 96.3 µM) | 64 (≈ 96.3 µM) | – | 32 (≈ 48.1 µM) | > 64 | 32 (≈ 48.1 µM) | 32 (≈ 48.1 µM) | 64 (≈ 96.3 µM) | 32 (≈ 48.1 µM) | > 64 | > 64 | > 64 |
| CN(C)c1cc2nc(-c3ccc4c(c3)OCO4)oc2c2c1C[C@H]1C[C@H]3[C@H](N(C)C)C(O)=C(C(N)=O)C(=O)[C@@]3(O)C(O)=C1C2=O [Example 14, (6aR,7aS,8S,11aS)-2-(1,3-benzodioxol-5-yl)-5,8-bis(dimethylamino)-9,11a,12-trihydroxy-11,13-dioxo-6,6a,7,7a,8,11,11a,13-octahydrotetraceno[2,1-d][1,3]oxazole-10-carboxamide] | 16 (≈ 26.6 µM) | > 64 | 4 (≈ 6.64 µM) | > 64 | > 64 | 4 (≈ 6.64 µM) | > 64 | 4 (≈ 6.64 µM) | 4 (≈ 6.64 µM) | 4 (≈ 6.64 µM) | 8 (≈ 13.3 µM) | 4 (≈ 6.64 µM) | 16 (≈ 26.6 µM) | 16 (≈ 26.6 µM) | 4 (≈ 6.64 µM) | 8 (≈ 13.3 µM) | 16 (≈ 26.6 µM) | – | > 64 | > 64 |
| CC(=O)OCc1ccc(-c2nc3cc(N(C)C)c4c(c3o2)C(=O)C2=C(O)[C@]3(O)C(=O)C(C(N)=O)=C(O)[C@@H](N(C)C)[C@@H]3C[C@@H]2C4)o1 [Example 21, {5-[(6aR,7aS,8S,11aS)-10-(aminocarbonyl)-5,8-bis(dimethylamino)-9,11a,12-trihydroxy-11,13-dioxo-6,6a,7,7a,8,11,11a,13-octahydrotetraceno[2,1-d][1,3]oxazol-2-yl]-2-furyl}methyl acetate] | > 64 | > 64 | 32 | > 64 | > 64 | 32 | > 64 | 32 | 64 | 32 | – | 64 | > 64 | > 64 | > 64 | > 64 | > 64 | 64 | > 64 | > 64 |
| CN(C)c1ccc(-c2nc3cc(N(C)C)c4c(c3o2)C(=O)C2=C(O)[C@]3(O)C(=O)C(C(N)=O)=C(O)[C@@H](N(C)C)[C@@H]3C[C@@H]2C4)cc1 [Example 8, (6aR,7aS,8S,11aS)-5,8-bis(dimethylamino)-2-[4-(dimethylamino)phenyl]-9,11a,12-trihydroxy-11,13-dioxo-6,6a,7,7a,8,11,11a,13-octahydrotetraceno[2,1-d][1,3]oxazole-10-carboxamide] | 16 (≈ 26.6 µM) | > 64 | 8 (≈ 13.3 µM) | > 64 | > 64 | 8 (≈ 13.3 µM) | > 64 | 16 (≈ 26.6 µM) | 16 (≈ 26.6 µM) | 16 (≈ 26.6 µM) | – | 8 (≈ 13.3 µM) | 16 (≈ 26.6 µM) | 16 (≈ 26.6 µM) | 64 (≈ 106 µM) | 32 (≈ 53.2 µM) | 32 (≈ 53.2 µM) | 16 (≈ 26.6 µM) | > 64 | > 64 |
| CN(C)Cc1nc2cc(N(C)C)c3c(c2o1)C(=O)C1=C(O)[C@]2(O)C(=O)C(C(N)=O)=C(O)[C@@H](N(C)C)[C@@H]2C[C@@H]1C3 [Example 36, (6aR,7aS,8S,11aS)-5,8-bis(dimethylamino)-2-[(dimethylamino)methyl]-9,11a,12-trihydroxy-11,13-dioxo-6,6a,7,7a,8,11,11a,13-octahydrotetraceno[2,1-d][1,3]oxazole-10-carboxamide] | 1 (≈ 1.85 µM) | 2 (≈ 3.71 µM) | 2 (≈ 3.71 µM) | 4 (≈ 7.41 µM) | 4 (≈ 7.41 µM) | 4 (≈ 7.41 µM) | > 64 | 4 (≈ 7.41 µM) | 4 (≈ 7.41 µM) | 4 (≈ 7.41 µM) | 16 (≈ 29.7 µM) | 4 (≈ 7.41 µM) | 1 (≈ 1.85 µM) | 1 (≈ 1.85 µM) | 1 (≈ 1.85 µM) | 4 (≈ 7.41 µM) | 1 (≈ 1.85 µM) | – | – | – |
| COc1ccc(-c2nc3cc(N(C)C)c4c(c3o2)C(=O)C2=C(O)[C@]3(O)C(=O)C(C(N)=O)=C(O)[C@@H](N(C)C)[C@@H]3C[C@@H]2C4)cc1F [Example 13, (6aR,7aS,8S,11aS)-5,8-bis(dimethylamino)-2-(3-fluoro-4-methoxyphenyl)-9,11a,12-trihydroxy-11,13-dioxo-6,6a,7,7a,8,11,11a,13-octahydrotetraceno[2,1-d][1,3]oxazole-10-carboxamide] | 16 (≈ 26.4 µM) | > 64 | 4 (≈ 6.59 µM) | > 64 | > 64 | 8 (≈ 13.2 µM) | > 64 | 4 (≈ 6.59 µM) | 8 (≈ 13.2 µM) | 4 (≈ 6.59 µM) | – | 4 (≈ 6.59 µM) | 4 (≈ 6.59 µM) | 16 (≈ 26.4 µM) | 16 (≈ 26.4 µM) | 8 (≈ 13.2 µM) | 32 (≈ 52.8 µM) | – | > 64 | > 64 |
| CN(C)c1cc2nc(-c3ccsc3)oc2c2c1C[C@H]1C[C@H]3[C@H](N(C)C)C(O)=C(C(N)=O)C(=O)[C@@]3(O)C(O)=C1C2=O [Example 17, (6aR,7aS,8S,11aS)-5,8-bis(dimethylamino)-9,11a,12-trihydroxy-11,13-dioxo-2-thien-3-yl-6,6a,7,7a,8,11,11a,13-octahydrotetraceno[2,1-d][1,3]oxazole-10-carboxamide] | 16 (≈ 28.3 µM) | > 64 | 8 (≈ 14.2 µM) | > 64 | > 64 | 8 (≈ 14.2 µM) | > 64 | 8 (≈ 14.2 µM) | 8 (≈ 14.2 µM) | 8 (≈ 14.2 µM) | – | 8 (≈ 14.2 µM) | 4 (≈ 7.08 µM) | 32 (≈ 56.7 µM) | 16 (≈ 28.3 µM) | 8 (≈ 14.2 µM) | 32 (≈ 56.7 µM) | 16 (≈ 28.3 µM) | > 64 | > 64 |

— patent US20080064667A1, “OXAZOLE DERIVATIVES OF TETRACYCLINES” (Wyeth, priority 2003, published 2008)
